# Where a name gives a salt, the structure may show the parent alone.
# What was measured:
# Sarcocystis neurona = test: Production of persistent parasitemia in a horse challenged with S. neurona (autologous leukocyte model); format: in vivo
# Protocol: In a first preferred embodiment a parasite population was isolated from horses as described in an experimental model (Experimental infection of horses with culture derived Sarcocystis neurnoa merozoites as a model for equine protozoal myeloencephalitis, 2004) and used to infect a yearling thoroughbred filly. The challenge (6000 organisms/day) was used daily for 10 days. Concurrent with the challenge infection the filly was administered 1 mg/kg levamisole HCl orally for 21 days. […] Daily blood samples were taken and 5 microliters of blood were used to prepare thin layer smears followed by staining with Geimsa. Ten fields were counted to determine the presence of S. neurona. A hemocytometer was used to determine the number of parasites per ml of peripheral blood. […] At the end of fourteen days the filly was treated with decoquinate orally at 0.5 mg/kg for 10 days.
# S. neurona = conditions: 1 mg/kg
# Protocol: Field cases of idiopathic encephalitis associated with EPM due to S. neurona were identified by veterinary clinical examination. […] Signs were assessed by the Field Veterinarian by a neurological examination of gait and scored on a scale of 1-5. Attributable data was obtained from 27 Field Veterinarians. Thirty-three animals were included into the study, missing data from 21 horses prevented inclusion of these 21 animals into the study analysis. In the included data set, one Field Veterinarian submitted data for 6 animals, one Field Veterinarian submitted data from two animals, and 25 veterinarians submitted data for one animal.
# Horses were evaluated for a change in gait score by subtracting the gait score after treatment from the gait score before treatment.
# [1] = horses, 5 mg/kg (2800 mg) orally, at one hour; reportedly; cited from earlier work
# [2] = Day 30, levamisole HCl 1 mg/kg orally 21 days, decoquinate 0.5 mg/kg orally 10 days from end of day 14
# [3] = Day 14, 1 mg/kg orally for 21 days concurrent with challenge
Compound,"visible parasites in the blood (Sarcocystis neurona; Day 30, decoquinate orally 0.5 mg/kg for 10 days from end of day 14, after levamisole HCl 1 mg/kg for 21 days)",clinical signs of disease (Sarcocystis neurona; [2]),"parasitemia (Sarcocystis neurona; Day 10, in the serum, 1 mg/kg orally for 21 days concurrent with challenge)","clinical signs of disease (Sarcocystis neurona; Day 10, yearling filly, challenge 6000 organisms/day for 10 days, 1 mg/kg orally for 21 days)",clinical signs of disease (Sarcocystis neurona; [3]),parasitemia (Sarcocystis neurona; [3]),animals with gait score worse or not changed after treatment (S. neurona; 33 horses),horses with gait score improved by at least one grade after treatment (S. neurona; 33 horses with signs of EPM not resolved with conventional treatment),plasma level [1]
CCCCCCCCCCOc1cc2c(O)c(C(=O)OCC)cnc2cc1OCC [decoquinate],no visible parasites in the blood,no clinical signs of disease,,,,,,,
c1ccc([C@H]2CN3CCSC3=N2)cc1 [levamisole HCl],,no clinical signs of disease,one million,no clinical signs,no clinical signs of disease,one million,18%,82%,485 ng/mL

# From patent US9880154B2, “Method for screening drugs and animal model for same” (priority 2014, dated 2018)
